From publication PMC8198038, “In Vitro Evaluation of Antiproliferative Properties of Novel Organotin(IV) Carboxylate Compounds with Propanoic Acid Derivatives on a Panel of Human Cancer Cell Lines” (Molecules, 2021)

Columns and labels:
[1] = test system: HepG2 (hepatocellular cancer) cells; experiment: MTT assay, HepG2 cells; format: cell-based, human; conditions: read-out: IC50 (mean ± SD), HepG2, MTT
Procedure: (§1) The cell proliferations of ligand precursors and organotin(IV) compounds were evaluated with the aid of MTT (3-(4,5-dimethylthiazol-2-yl)-2,5-12 diphenyltetrazolium bromide) and CV (crystal violet) assays toward prostate (PC-3), colon (HT-29), breast (MCF-7) and hepatic (HepG2) cancer cell lines, and normal mouse embryonic fibroblast cells (NIH 3T3). The cells were cultivated in T75 flasks containing 10 mL of complete medium and kept at 37 °C and 5% CO2 […]. The nutrient medium was RPMI-1640 (PAA Laboratories) supplemented with 10% foetal bovine serum, L-glutamine, and penicillin/streptomycin (Sigma). Afterward, 5.000 cells of PC-3 and MCF-7 and 1.500 cells of HT-29 and HepG2 were transferred into 96 well-plates and used for MTT and CV assays. For microscopy investigations as well as FACS measurements (except for ROS/RNS measurements), MCF-7 cells were seeded overnight in 6-well plates (150,000 cells/well) in […] of complete medium. […] In all assays, control cells were untreated MCF-7 cells incubated for the same time period as treated cells and treated with appropriate reagents in various assays. BD FACS Aria III was used for flow cytometry experiments and results were analysed using BD FACSDiva software (BD Biosciences, Heidelberg, Germany) and Cyflogic (V 1.2.1, CyFlo Ltd., Turku, Finland). A fluorescence microscope Invitrogen EVOS FL 2 Auto 2 Cell Imaging System was used for visualization of the cells as well as for detection of fluorescence in the cells.
(§2) Ligands HL1‒HL3, organotin(IV) compounds, and cisplatin were investigated in 9 different concentrations (100, 50, 10, 5, 1, 0.5, 0.1, 0.05, 0.01 μM). Using the complete medium, each stock solution of the test compounds (20 mM in DMSO) was diluted to obtain the working solution. The final concentration of DMSO never overstepped 0.5%, which is non-toxic to the cells. Three technical replicates were performed for each concentration. The treated cells were incubated for 48 h at 37 °C under 5% CO2 and the viability of the cells was determined using MTT and CV assays according to the literature procedure. The IC50 values, defined as 50% inhibitory concentration, were calculated with a four-parameter logistic function and presented in a mean. All experiments were performed in triplicate.

[2] = test system: HT-29 (human colorectal adenocarcinoma) cells; experiment: CV (crystal violet) assay, HT-29 cells; format: cell-based; conditions: read-out: IC50 (mean ± SD), HT-29, CV
Procedure: as §1, §2

[3] = test system: PC-3 (human prostate cancer) cells; experiment: MTT assay, PC-3 cells; format: cell-based; conditions: read-out: IC50 (mean ± SD), PC-3, MTT
Procedure: as §1, §2

[4] = test system: PC-3, HT-29, MCF-7 and HepG2 tumour cell lines; experiment: MTT and CV assays, panel of four tumour cell lines; format: cell-based, human; conditions: applied concentrations up to 100 µM, 48 h
Procedure: The in vitro anticancer activity of ligand precursors, HL1–HL3 and its organotin(IV) compounds was tested in a panel of four tumour cell lines: PC3 (prostate cancer cells), HT-29 (colon cancer cells), MCF-7 (breast cancer cells), and HepG2 (hepatic cancer cells), as well as on normal NIH3T3 cells (mouse embryonic fibroblast) using MTT and CV assays after 48 h of incubation.
The cell proliferations of ligand precursors and organotin(IV) compounds were evaluated with the aid of MTT (3-(4,5-dimethylthiazol-2-yl)-2,5-12 diphenyltetrazolium bromide) and CV (crystal violet) assays toward prostate (PC-3), colon (HT-29), breast (MCF-7) and hepatic (HepG2) cancer cell lines, and normal mouse embryonic fibroblast cells (NIH 3T3). The cells were cultivated in T75 flasks containing 10 mL of complete medium and kept at 37 °C and 5% CO2 […]. The nutrient medium was RPMI-1640 (PAA Laboratories) supplemented with 10% foetal bovine serum, L-glutamine, and penicillin/streptomycin (Sigma). Afterward, 5.000 cells of PC-3 and MCF-7 and 1.500 cells of HT-29 and HepG2 were transferred into 96 well-plates and used for MTT and CV assays. For microscopy investigations as well as FACS measurements (except for ROS/RNS measurements), MCF-7 cells were seeded overnight in 6-well plates (150,000 cells/well) in […] of complete medium. […] BD FACS Aria III was used for flow cytometry experiments and results were analysed using BD FACSDiva software (BD Biosciences, Heidelberg, Germany) and Cyflogic (V 1.2.1, CyFlo Ltd., Turku, Finland). A fluorescence microscope Invitrogen EVOS FL 2 Auto 2 Cell Imaging System was used for visualization of the cells as well as for detection of fluorescence in the cells.
Ligands HL1‒HL3, organotin(IV) compounds, and cisplatin were investigated in 9 different concentrations (100, 50, 10, 5, 1, 0.5, 0.1, 0.05, 0.01 μM). […] The treated cells were incubated for 48 h at 37 °C under 5% CO2 and the viability of the cells was determined using MTT and CV assays according to the literature procedure. […]

[5] = test system: MCF-7 (breast cancer) cells; experiment: CV (crystal violet) assay, MCF-7 cells; format: cell-based, human; conditions: read-out: IC50 (mean ± SD), MCF-7, CV
Procedure: as §1, §2

[6] = test system: HepG2 (hepatocellular cancer) cells; experiment: CV (crystal violet) assay, HepG2 cells; format: cell-based, human; conditions: read-out: IC50 (mean ± SD), HepG2, CV
Procedure: as §1, §2

[7] = test system: HT-29 (human colorectal adenocarcinoma) cells; experiment: MTT assay, HT-29 cells; format: cell-based; conditions: read-out: IC50 (mean ± SD), HT-29, MTT
Procedure: as §1, §2

[8] = test system: MCF-7 (breast cancer) cells; experiment: MTT assay, MCF-7 cells; format: cell-based, human; conditions: for IC50: read-out: IC50 (mean ± SD), MCF-7, MTT
Procedure: as §1, §2

[9] = test system: NIH3T3 (normal mouse embryonic fibroblast) cells; experiment: MTT assay, NIH3T3 cells; format: cell-based; conditions: read-out: IC50 (mean ± SD), NIH3T3, MTT
Procedure: as §1, §2

[10] = test system: NIH3T3 (normal mouse embryonic fibroblast) cells; experiment: CV (crystal violet) assay, NIH3T3 cells; format: cell-based; conditions: read-out: IC50 (mean ± SD), NIH3T3, CV
Procedure: as §1, §2

[11] = test system: PC-3 (human prostate cancer) cells; experiment: CV (crystal violet) assay, PC-3 cells; format: cell-based; conditions: read-out: IC50 (mean ± SD), PC-3, CV
Procedure: as §1, §2

[12] = Homo sapiens, HepG2, MTT assay, 48 h incubation
[13] = Homo sapiens, HT-29, CV assay, 48 h incubation
[14] = Homo sapiens, PC-3, MTT assay, 48 h incubation
[15] = Homo sapiens, MCF7, CV assay, 48 h incubation
[16] = Homo sapiens, HepG2, CV assay, 48 h incubation
[17] = Homo sapiens, HT-29, MTT assay, 48 h incubation
[18] = Homo sapiens, MCF7, MTT assay, 48 h incubation
[19] = Mus musculus, NIH3T3, MTT assay, 48 h incubation, normal cells
[20] = Mus musculus, NIH3T3, CV assay, 48 h incubation, normal cells
[21] = Homo sapiens, PC-3, CV assay, 48 h incubation
[22] = MTT assay, 48 h incubation, normal cells
[23] = CV assay, 48 h incubation, normal cells

| IC50 [1, 12] [nM] | IC50 [2, 13] [nM] | IC50 [3, 14] [nM] | IC50 [5, 15] [nM] | IC50 [6, 16] [nM] | IC50 [7, 17] [nM] | IC50 [8, 18] [nM] | IC50 [11, 21] [nM] | Molecule | influence on cell proliferation [4] | IC50 [9, 19] [nM] | IC50 [10, 20] [nM] | IC50 ([1]; MTT assay, 48 h incubation) [nM] | IC50 ([2]; CV assay, 48 h incubation) [nM] | IC50 ([3]; MTT assay, 48 h incubation) [nM] | IC50 ([5]; CV assay, 48 h incubation) [nM] | IC50 ([6]; CV assay, 48 h incubation) [nM] | IC50 ([7]; MTT assay, 48 h incubation) [nM] | IC50 ([8]; MTT assay, 48 h incubation) [nM] | IC50 [9, 22] [nM] | IC50 [10, 23] [nM] | further results |
| --- | --- | --- | --- | --- | --- | --- | --- | --- | --- | --- | --- | --- | --- | --- | --- | --- | --- | --- | --- | --- | --- |
| – | – | – | – | – | – | – | – | O=C(O)CCc1nc(-c2ccccc2)c(-c2ccccc2)o1 [HL1, 3-(4,5-diphenyloxazol-2-yl)propanoic acid, reference compound] | did not affect cell proliferation in any cancer cell line tested | – | – | – | – | – | – | – | – | – | – | – | IC50 ([1]; Homo sapiens, HepG2, 48 h): > 100000 nM; IC50 ([2]; Homo sapiens, HT-29, 48 h): > 100000 nM; IC50 ([3]; Homo sapiens, PC-3, 48 h): > 100000 nM; IC50 ([5]; Homo sapiens, MCF7, 48 h): > 100000 nM; IC50 ([6]; Homo sapiens, HepG2, 48 h): > 100000 nM; IC50 ([7]; Homo sapiens, HT-29, 48 h): > 100000 nM; IC50 ([8]; Homo sapiens, MCF7, 48 h): > 100000 nM; IC50 ([9]; Mus musculus, NIH3T3, 48 h): > 100000 nM; IC50 ([10]; Mus musculus, NIH3T3, 48 h): > 100000 nM; IC50 ([11]; Homo sapiens, PC-3, 48 h): > 100000 nM |
| > 100000 | > 100000 | > 100000 | > 100000 | > 100000 | > 100000 | > 100000 | > 100000 | COc1ccc(-c2nc(CCC(=O)O)oc2-c2ccc(OC)cc2)cc1 [HL2, 3-(4,5-bis(4-Methoxylphenyl)oxazol-2-yl)propanoic acid] | did not affect cell proliferation in any cancer cell line tested | > 100000 | > 100000 | – | – | – | – | – | – | – | – | – | – |
| > 100000 | > 100000 | > 100000 | > 100000 | > 100000 | > 100000 | > 100000 | > 100000 | O=C(O)CCN1C(=O)NC(c2ccccc2)(c2ccccc2)C1=O [HL3, 3-(2,5-Dioxo-4,4-diphenylimidazolidin-1-yl)propanoic acid] | did not affect cell proliferation in any cancer cell line tested | > 100000 | > 100000 | – | – | – | – | – | – | – | – | – | – |
| – | – | – | – | – | – | – | – | O=C(CCN1C(=O)NC(c2ccccc2)(c2ccccc2)C1=O)[O][Sn]([c]1ccccc1)([c]1ccccc1)[c]1ccccc1 [Ph3SnL3, (3-(2,5-Dioxo-4,4-diphenylimidazolidin-1-yl)propanoato)triphenyltin(IV)] | – | – | – | 100 ± 30 | 471 ± 48 | 211 ± 42 | 219 ± 16 | 255 ± 85 | 218 ± 15 | 131 ± 17 | 1820 ± 990 | 2090 ± 1030 | fold higher activity compared to cisplatin against MCF-7 ([8]; Table 1 IC50 values, 48 h): up to 120 fold; IC50 ([11]; CV assay, 48 h incubation): 458 ± 29 nM |
| – | – | – | – | – | – | – | – | (3-(4,5-bis(4-Methoxylphenyl)oxazol-2-yl)propanoato)triphenyltin(IV) [Ph3SnL2] | – | – | – | 223 ± 84 | 727 ± 18 | 575 ± 43 | 543 ± 26 | 628 ± 165 | 453 ± 63 | 309 ± 59 | 1990 ± 1120 | 2610 ± 520 | IC50 ([11]; CV assay, 48 h incubation): 785 ± 18 nM |
